This note sets out measurements from patent US8802630B2, “Method of treating brain injury” (Buddhist Tzu Chi General Hospital, priority 2011, dated 2014).

Where no end group is shown, it is not given here.

Data set [1] deals with collagenase-induced ICH rats. Briefly: Assessment of hemorrhagic volume (spectrophotometric assay). In kind it is in vivo. How it is done: Rats were randomly used in assessment of hemorrhagic volume at 24 hours (day 1) post-ICH. The accumulated hemorrhagic volume was quantified by a spectrophotometric assay as reported by Park et al., with minor modification (Park et al., 2005). Briefly, both contralateral and ipsilateral hemispheres were obtained after transcardial perfusion. PBS was added to the individual hemispheres to make-up a total of 3 ml volume for homogenization and centrifugation (15000 g, 30 minutes). The supernatant (40 μl) was reacted with Drabkin's reagent (160 μl, Sigma) for 15 minutes at room temperature. Optical density was measured at 540 nm with a spectrophotometer (Molecular Devices OptiMax, USA). Equivalent hemorrhage volume (μl) of the supernatant was calculated from a standard curve obtained with known amounts of the blood.

The subject of data set [2] is collagenase-induced ICH rats. Briefly: Morphometric measurement of lesion volume / injured area. To be noted: for injured area: UCN 5 μg i.c.v. Type of data set: in vivo. The text has this: […] The brains were cut coronally through the needle entry site (identifiable on the brain surface), and then serially sliced (2-mm thickness) anteriorly and posteriorly to the needle entry site. Digital photographs of the serial slices were taken and lesion volume was computed using image analyzer program (Image J, NIH). The total lesion volume (mm^3) was computed by summing the residual blood clot and damaged area in each section and multiplying by the distance between sections (Jung et al., 2004).

The subject of data set [3] is collagenase-induced ICH rats. Briefly: Assessment of brain edema (brain water content, wet/dry method). In kind it is in vivo. To be noted: day 3 post-ICH. The text has this:
Brain edema formation peaks on day 3 post-ICH (Xue et al., 2000; Yang et al., 1994). […] Rats were randomly used in the assessment of brain water content by using a common wet/dry method as previously described (Chu et al., 2004). Briefly, 3 days post-ICH, rats were anesthetized and decapitated. The brains were removed and separated into contralateral, ipsilateral hemispheres and cerebellum. The cerebellum was used as an internal control. Sample was weighed to obtain the wet weight immediately, and then dried in an oven at 100° C. for 24 hours to obtain the dry weight. The water content was expressed as a percentage of the wet weight: [(wet weight)−(dry weight)](wet weight)^−1×100%.

The next data set deals with TNF-α. Nature of the data set: Cytokine ELISA of ipsilateral striatal tissue. In kind it is in vivo, rats. To be noted: L-UCN 2.5 μg/kg i.p.; days 1, 3 and 7 post-ICH; vs ICH+Saline. As for the experimental part:
(§1) Rats were used for the cytokine assay by ELISA. The ipsilateral striatal tissues were collected before and on days 1, 3 and 7 days post-ICH. After homogenization in the lysis buffer (PRO-PREP™, iNtRON Biotechnology, Korea) and centrifuged at 12,000 g for 30 minutes, the supernatants were collected and stored frozen at −80° C. During quantification, the cytokines (TNFα, IL-1β and IL-6) were normalized to 100 μg of proteins in the supernatant using a commercial ELISA kit from R & D Systems (Minneapolis, Minn., USA) according to the manufacturer's instructions.

A further data set deals with IL-1β. Nature of the data set: Cytokine ELISA of ipsilateral striatal tissue. In kind it is in vivo, rats. The settings on record: L-UCN 2.5 μg/kg i.p.; days 1, 3 and 7 post-ICH; vs ICH+Saline. How it is done: as §1
Background: ELISA stands for enzyme-linked immunosorbent assay.

The next data set deals with IL-6. Nature of the data set: Cytokine ELISA of ipsilateral striatal tissue. In kind it is in vivo, rats. The settings on record: L-UCN 2.5 μg/kg i.p.; day 1 post-ICH; vs ICH+Saline. How it is done:
as §1

The next data set concerns microglial cells. Nature of the data set: Immunohistochemistry of microglial activation (OX-42, ED-1). In kind it is in vivo, rats. The settings on record: perihematomal region; L-UCN 2.5 μg/kg i.p.; day 3 post-ICH. How it is done: Rats were used in immunohistochemistry on day 3 post-ICH. Rats were anesthetized as described above and transcardially perfused with cold 0.1 M phosphate buffer saline followed by cold 4% paraformaldehyde in 0.1 M phosphate-buffered saline. Brains were removed and immersed in 4% paraformaldehyde for 24 hours and 30% sucrose for another 24 hours. Coronal brain sections (20 μm thickness) were cut and collected from 0.0 to −2.0 mm AP to bregma using a cryostat (Leica CM 1900). Three 20 μm coronal sections, representing the core of the hematoma, were taken starting at 0.0 mm from bregma (the needle entry site). Additional adjacent serial coronal sections taken through the center of the hemorrhagic lesion were processed for the counting of marker-specific cells (Jung et al., 2004). Antibodies of OX-42 (1:100; BD, USA), ED-1 (1:100; BD, USA) were used as microglial markers, and NeuN (1:200, Chemicon, USA) was used as neuron marker. Tissues sections were incubated with the primary antibodies overnight at 4° C. […] The numbers of positive cells in the same focal plane were counted in 6 regions of interest around the ipsilateral striatum (perihematomal region, 1 mm^2) All cell counting was done by an independent investigator counted the positive cells.

A short description of data set [4]: Cerebral blood flow after bolus injection of UCN. The settings on record: UCN 25 μg/kg body weight. In kind it is in vivo.
Data set [5] relates to autologous blood infusion-induced ICH rats. Briefly: modified Neurological Severity Score (mNSS), autologous blood infusion ICH model. Type of data set: in vivo. As for the experimental part:
The ICH refers to hemorrhage in the striatum, a part of the brain. Male Sprague-Dawley rats (250-300 g) anesthetized with chloral hydrate (0.4 g kg^−1 i.p., Sigma-Aldrich, St. Louis, Mo., USA). The blood infusion model of ICH was induced by intrastriatal (0.0 mm posterior, 3.0 mm right, 5.0 mm ventral to bregma skull surface) infusion of autologous blood (100 μl within 1 minute) and stereotaxic administration of bacterial collagenase VII-S into the striatum (MacLellan et al. 2008; Rosenberg et al. 1990). Briefly, bacterial collagenase VII-S (0.23 U in 1.0 μl sterile saline, Sigma-Aldrich) was infused into the striatum over a period of 10 minutes. The needle was kept in place for another 10 minutes to prevent backflow. The craniotomies were sealed with bone wax. The rats were allowed to recover in separate cages at room temperature.
Rats were used in the assessment of the neurological abnormalities with a modified Neurological Severity Score (mNSS) method (Chen et al. 2001) by an investigator blinded to the experimental treatment scheme. The mNSS is a composite test of motor, sensory, and balance functions. The assessment was performed before and on 1, 3 and 7 days after the ICH. Neurological functions were graded on a scale of 0-18 (normal score, 0; maximal deficit score, 18).

With “urocortin (DNPSLSIDLTFHLLRTLLELARTQSQRERAEQNRIIFDSV; ends and bridges not checked; UniProt P55089 83-122, looked up) [UCN, a 40-amino-acid endogenous neuropeptide, belongs to the corticotrophin releasing hormone (CRH) family]”, in data set [1] (L-UCN 2.5 μg/kg i.p., day 1 post-ICH, vs ICH+Saline), the hemorrhagic volume result is “not significantly different”. In data set [1] (UCN 5 μg i.c.v., 24 h post-ICH, vs ICH+saline), the accumulated hemorrhagic volume entry is recorded as “not significantly different”. This substance returned a lesion volume in [2] (L-UCN 2.5 μg/kg i.p., day 3 post-ICH) of 23.73±1.79 mm^3. The injured area in data set [2] (day 3 after ICH) amounted to 16.14±1.22 mm^2; in [2] (day 7 after ICH), 5.62±1.04 mm^2. The brain water content result in [3] (cerebellum, L-UCN and H-UCN i.p., among groups) is given as “No significant differences”; in data set [3] (cerebellum, UCN 5 μg i.c.v., among groups), “essentially not affected”; in [3] (contralateral hemisphere, H-UCN 25 μg/kg i.p.), 79.40±0.15%; in [3] (contralateral hemisphere, L-UCN 2.5 μg/kg i.p.) it was 79.98±0.19%; in data set [3] (contralateral hemisphere, UCN 5 μg i.c.v.) it was 80.08±0.08%; in data set [3] (ipsilateral hemisphere, H-UCN 25 μg/kg i.p.), 79.94±0.66%. For the same substance, the brain water content was 80.60±0.17% in data set [3] (ipsilateral hemisphere, L-UCN 2.5 μg/kg i.p.) and 81.16±0.16% in data set [3] (ipsilateral hemisphere, UCN 5 μg i.c.v.). Moreover, in the data set with TNF-α, the “TNF-α level of ipsilateral striatum” value is “significantly reduced”. In the data set with IL-1β, the “IL-1β level of ipsilateral striatum” value was “significantly reduced”. For the same substance, in the data set on IL-6, the “IL-6 level of ipsilateral striatum” value is on record as “reduced”. For the same substance, the “number of ED-1+ cells” value with microglial cells worked out at 28.50±2.65 cells/6 mm^2. For the same substance, the “number of OX-42+ microglial cells” value with microglial cells was found to be 82.00±22.86 cells/6 mm^2. For the same substance, the “reduction of the cerebral blood flow (CBF)” value in data set [4] (bolus intraperitoneal injection) was 25%. Also, the “reduction of CBF” value in data set [4] (bolus intravenous injection) was 40-45%. Also, the mNSS entry is given as “greater reduction in mNSS” in data set [5] (UCN 2.5 μg/kg i.p. 60 min after blood infusion ICH, vs ICH+Saline) and “greater reduction in mNSS” in data set [5] (UCN 5 μg i.c.v. 1 h after blood infusion ICH, vs saline).
